# Test results: the supplement of paper PMC10307832
# Columns and labels:
# Test in all cases: relative viability (nuclei count vs DMSO), 5 days (fraction); higher = more cells survive
# [1] = test system: 201T
# Method in brief: (§1)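 Relative viability divides the nuclei count in treated wells by that in vehicle wells. Lung cancer cell lines were seeded in 1536-well plates, dosed by pin tool the next day, and fixed and stained after 5 days in one step with final 0.05% Triton X-100, 1% formaldehyde and 1 ug/ml Hoechst. Dosing was a single drug or a fixed anchor-drug dose plus five library-drug doses (not always all listed) in √10 steps, and values are medians of duplicate plates imaged at 4×.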
# [2] = test system: BEN
# Method in brief: as §1
# [3] = test system: CAL-12T
# Method in brief: as §1
# [4] = test system: HCC-78
# Method in brief: as §1
# [5] = test system: HOP-62
# Method in brief: as §1
# [6] = test system: LCLC-97TM1
# Method in brief: as §1
# [7] = test system: LOU-NH91
# Method in brief: as §1
# [8] = test system: NCI-H1355
# Method in brief: as §1
# [9] = test system: NCI-H1395
# Method in brief: as §1
# [10] = test system: NCI-H1651
# Method in brief: as §1
# [11] = test system: NCI-H1793
# Method in brief: as §1
# [12] = test system: NCI-H1915
# Method in brief: as §1
# [13] = test system: NCI-H1944
# Method in brief: as §1
# [14] = test system: NCI-H2126
# Method in brief: as §1
# [15] = test system: NCI-H2347
# Method in brief: as §1
# [16] = test system: NCI-H3122
# Method in brief: as §1
# [17] = test system: NCI-H322M
# Method in brief: as §1
# [18] = test system: NCI-H441
# Method in brief: as §1
# [19] = test system: NCI-H650
# Method in brief: as §1
# [20] = test system: NCI-H838
# Method in brief: as §1
smiles,measurement,setting,value
Cc1csc(=NC2CCCCC2)n1/N=C/c1ccc(O)c(O)c1O [MIM1] + NC(=O)Nc1cc(-c2cccc(F)c2)sc1C(=O)N[C@H]1CCCNC1 [AZD7762] (partner 0.2 µM),relative viability,[1]; first compound 0.2 µM,0.62
same,relative viability,[1]; first compound 0.6325 µM,0.691
same,relative viability,[1]; first compound 2 µM,0.588
same,relative viability,[1]; first compound 6.325 µM,0.453
same,relative viability,[1]; first compound 20 µM,0.305
same,relative viability,[2]; first compound 0.2 µM,0.781
same,relative viability,[2]; first compound 0.6325 µM,0.645
same,relative viability,[2]; first compound 2 µM,0.67
same,relative viability,[2]; first compound 6.325 µM,0.707
same,relative viability,[2]; first compound 20 µM,0.336
same,relative viability,[3]; first compound 0.2 µM,0.527
same,relative viability,[3]; first compound 0.6325 µM,0.575
same,relative viability,[3]; first compound 2 µM,0.605
same,relative viability,[3]; first compound 6.325 µM,0.436
same,relative viability,[3]; first compound 20 µM,0.332
same,relative viability,[4]; first compound 0.2 µM,0.548
same,relative viability,[4]; first compound 2 µM,0.611
same,relative viability,[4]; first compound 6.325 µM,0.507
same,relative viability,[4]; first compound 20 µM,0.662
same,relative viability,[5]; first compound 0.2 µM,0.557
same,relative viability,[5]; first compound 0.6325 µM,0.662
same,relative viability,[5]; first compound 2 µM,0.756
same,relative viability,[5]; first compound 6.325 µM,0.506
same,relative viability,[5]; first compound 20 µM,0.0832
same,relative viability,[6]; first compound 0.2 µM,0.231
same,relative viability,[6]; first compound 0.6325 µM,0.243
same,relative viability,[6]; first compound 2 µM,0.196
same,relative viability,[6]; first compound 6.325 µM,0.145
same,relative viability,[6]; first compound 20 µM,0.0668
same,relative viability,[7]; first compound 0.2 µM,0.731
same,relative viability,[7]; first compound 0.6325 µM,0.779
same,relative viability,[7]; first compound 2 µM,0.677
same,relative viability,[7]; first compound 6.325 µM,0.637
same,relative viability,[7]; first compound 20 µM,0.279
same,relative viability,[8]; first compound 0.2 µM,0.802
same,relative viability,[8]; first compound 0.6325 µM,0.69
same,relative viability,[8]; first compound 2 µM,0.814
same,relative viability,[8]; first compound 6.325 µM,0.529
same,relative viability,[8]; first compound 20 µM,0.673
same,relative viability,[9]; first compound 0.2 µM,0.416
same,relative viability,[9]; first compound 0.6325 µM,0.409
same,relative viability,[9]; first compound 2 µM,0.338
same,relative viability,[9]; first compound 6.325 µM,0.387
same,relative viability,[9]; first compound 20 µM,0.337
same,relative viability,[10]; first compound 0.2 µM,0.464
same,relative viability,[10]; first compound 0.6325 µM,0.434
same,relative viability,[10]; first compound 2 µM,0.425
same,relative viability,[10]; first compound 6.325 µM,0.429
same,relative viability,[10]; first compound 20 µM,0.503
same,relative viability,[11]; first compound 0.2 µM,0.614
same,relative viability,[11]; first compound 2 µM,0.412
same,relative viability,[11]; first compound 6.325 µM,0.424
same,relative viability,[11]; first compound 20 µM,0.271
same,relative viability,[12]; first compound 0.2 µM,0.691
same,relative viability,[12]; first compound 0.6325 µM,0.495
same,relative viability,[12]; first compound 2 µM,0.574
same,relative viability,[12]; first compound 6.325 µM,0.384
same,relative viability,[12]; first compound 20 µM,0.283
same,relative viability,[13]; first compound 0.2 µM,0.511
same,relative viability,[13]; first compound 0.6325 µM,0.479
same,relative viability,[13]; first compound 2 µM,0.475
same,relative viability,[13]; first compound 6.325 µM,0.397
same,relative viability,[13]; first compound 20 µM,0.243
same,relative viability,[14]; first compound 0.2 µM,0.934
same,relative viability,[14]; first compound 0.6325 µM,0.985
same,relative viability,[14]; first compound 2 µM,1.07
same,relative viability,[14]; first compound 6.325 µM,0.913
same,relative viability,[14]; first compound 20 µM,0.786
same,relative viability,[15]; first compound 0.2 µM,0.689
same,relative viability,[15]; first compound 0.6325 µM,0.779
same,relative viability,[15]; first compound 2 µM,0.797
same,relative viability,[15]; first compound 6.325 µM,0.623
same,relative viability,[15]; first compound 20 µM,0.57
same,relative viability,[16]; first compound 0.2 µM,0.945
same,relative viability,[16]; first compound 0.6325 µM,0.978
same,relative viability,[16]; first compound 2 µM,0.973
same,relative viability,[16]; first compound 6.325 µM,0.472
same,relative viability,[16]; first compound 20 µM,0.19
same,relative viability,[17]; first compound 0.2 µM,0.564
same,relative viability,[17]; first compound 0.6325 µM,0.652
same,relative viability,[17]; first compound 2 µM,0.446
same,relative viability,[17]; first compound 6.325 µM,0.455
same,relative viability,[17]; first compound 20 µM,0.439
same,relative viability,[18]; first compound 0.2 µM,1.16
same,relative viability,[18]; first compound 0.6325 µM,1.09
same,relative viability,[18]; first compound 2 µM,1.17
same,relative viability,[18]; first compound 6.325 µM,0.674
same,relative viability,[18]; first compound 20 µM,0.386
same,relative viability,[19]; first compound 0.2 µM,1.05
same,relative viability,[19]; first compound 0.6325 µM,1.03
same,relative viability,[19]; first compound 2 µM,0.866
same,relative viability,[19]; first compound 6.325 µM,0.975
same,relative viability,[19]; first compound 20 µM,0.271
same,relative viability,[20]; first compound 0.2 µM,0.868
same,relative viability,[20]; first compound 0.6325 µM,0.947
same,relative viability,[20]; first compound 2 µM,0.751
same,relative viability,[20]; first compound 6.325 µM,0.84
same,relative viability,[20]; first compound 20 µM,0.691
